Experiments:
[1] = target: T1, Dihydroorotate dehydrogenase (Plasmodium falciparum, UniProt Q54A96)
T1 sequence (Q54A96 whole entry): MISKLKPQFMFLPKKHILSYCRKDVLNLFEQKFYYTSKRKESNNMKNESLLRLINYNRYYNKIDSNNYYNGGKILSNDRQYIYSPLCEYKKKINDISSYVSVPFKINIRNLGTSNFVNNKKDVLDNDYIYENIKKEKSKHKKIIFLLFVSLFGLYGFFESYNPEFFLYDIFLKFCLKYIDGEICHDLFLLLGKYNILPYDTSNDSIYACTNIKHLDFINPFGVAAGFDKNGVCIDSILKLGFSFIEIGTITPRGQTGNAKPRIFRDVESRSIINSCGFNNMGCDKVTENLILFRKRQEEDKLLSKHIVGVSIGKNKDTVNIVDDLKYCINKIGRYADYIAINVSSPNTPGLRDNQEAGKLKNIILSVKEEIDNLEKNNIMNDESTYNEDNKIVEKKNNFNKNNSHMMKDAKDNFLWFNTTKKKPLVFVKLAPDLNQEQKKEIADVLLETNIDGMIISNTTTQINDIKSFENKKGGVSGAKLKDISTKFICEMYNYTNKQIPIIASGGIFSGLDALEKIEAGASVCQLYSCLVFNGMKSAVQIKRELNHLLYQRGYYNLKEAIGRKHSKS
Description: Inhibition of ubiquinone binding site of Plasmodium falciparum dihydroorotate dehydrogenase

[2] = target: Dihydroorotate dehydrogenase (quinone), mitochondrial (Homo sapiens, UniProt Q02127)
Chain of Dihydroorotate dehydrogenase (quinone), mitochondrial (Q02127 whole entry): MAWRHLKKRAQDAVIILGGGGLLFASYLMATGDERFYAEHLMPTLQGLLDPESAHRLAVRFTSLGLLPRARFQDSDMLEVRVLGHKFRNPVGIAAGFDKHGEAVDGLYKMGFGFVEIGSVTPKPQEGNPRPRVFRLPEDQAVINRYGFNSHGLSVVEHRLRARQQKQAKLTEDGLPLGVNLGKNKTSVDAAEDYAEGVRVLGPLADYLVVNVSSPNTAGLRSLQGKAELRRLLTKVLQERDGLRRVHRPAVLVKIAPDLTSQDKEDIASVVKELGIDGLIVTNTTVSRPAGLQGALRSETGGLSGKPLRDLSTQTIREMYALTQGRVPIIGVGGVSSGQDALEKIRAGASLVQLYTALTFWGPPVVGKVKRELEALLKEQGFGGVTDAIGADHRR
Description: Inhibition of ubiquinone binding site of human dihydroorotate dehydrogenase

Structure (SMILES) | IC50 [1] | Ki [1] | IC50 [2] | Ki [2]
C/C(O)=C(\C#N)C(=O)Nc1ccc(-c2ccccc2)cc1Cl | 51.1 µM | 6 µM | 0.32 µM | 0.039 µM
C/C(O)=C(\C#N)C(=O)Nc1ccc(-c2cccc(Cl)c2)cc1C(F)(F)F | 57.2 µM | 6.8 µM | 86.6 µM | 10.7 µM
C/C(O)=C(\C#N)C(=O)Nc1ccc(-c2cccc(Cl)c2)c(Cl)c1 | 237 µM | 28 µM | 0.19 µM | 0.023 µM
C/C(O)=C(\C#N)C(=O)Nc1ccc(-c2ccccc2)cc1 | 25.7 µM | 3 µM | 0.09 µM | 0.011 µM
N#C/C(C(=O)Nc1ccc(C(F)(F)F)cc1)=C(/O)C1CC1 | 92.5 µM | 11 µM | 0.117 µM | 0.014 µM
C/C(O)=C(\C#N)C(=O)Nc1ccc(-c2cccc(Cl)c2)cc1Cl | 49.1 µM | 5.8 µM | 1.52 µM | 0.19 µM
N#C/C(C(=O)Nc1ccc(-c2ccccc2)cc1)=C(/O)C1CC1 | – | – | 0.053 µM | 0.007 µM
C/C(O)=C(\C#N)C(=O)Nc1ccc(-c2ccccc2Cl)c(Cl)c1 | 165 µM | 20.5 µM | 0.022 µM | 0.0027 µM
CCOc1cccc(-c2ccc(NC(=O)/C(C#N)=C(/C)O)cc2)c1 | 182 µM | 21.5 µM | 0.13 µM | 0.016 µM

Continued by falling IC50 [1], values first:

IC50 [1] | Ki [1] | IC50 [2] | Ki [2] | Structure (SMILES)
47.4 µM | 5.6 µM | 0.13 µM | 0.016 µM | C/C(O)=C(\C#N)C(=O)Nc1ccc(-c2ccccc2Cl)cc1
27.2 µM | 3.2 µM | 0.2 µM | 0.025 µM | C/C(O)=C(\C#N)C(=O)Nc1ccc(-c2cccc(Cl)c2Cl)cc1
10.2 µM | 1.2 µM | 16.5 µM | 2 µM | C/C(O)=C(\C#N)C(=O)Nc1ccc(-c2c(Cl)cccc2Cl)cc1Cl
9.9 µM | 1.2 µM | 0.33 µM | 0.04 µM | C/C(O)=C(\C#N)C(=O)Nc1ccc(-c2cccc(Cl)c2Cl)cc1Cl
8.6 µM | 1 µM | 0.2 µM | 0.025 µM | COc1ccccc1-c1ccc(NC(=O)/C(C#N)=C(/C)O)c(Cl)c1
6.2 µM | 0.73 µM | 0.17 µM | 0.021 µM | C/C(O)=C(\C#N)C(=O)Nc1ccc(-c2ccccc2Cl)cc1C(F)(F)F
4 µM | 0.48 µM | 0.18 µM | 0.022 µM | C/C(O)=C(\C#N)C(=O)Nc1ccc(-c2ccccc2Cl)cc1Cl
